Measurements: patent US8138193B2, “Fused pyrazine compounds useful for the treatment of degenerative and inflammatory diseases” (Janssen Pharmaceutica N.V., priority 2007, dated 2012)

Target: T1, MAPKAPK5 (Homo sapiens, UniProt Q8IW41)
T1 sequence (Q8IW41 1-471 isoform Q8IW41-2): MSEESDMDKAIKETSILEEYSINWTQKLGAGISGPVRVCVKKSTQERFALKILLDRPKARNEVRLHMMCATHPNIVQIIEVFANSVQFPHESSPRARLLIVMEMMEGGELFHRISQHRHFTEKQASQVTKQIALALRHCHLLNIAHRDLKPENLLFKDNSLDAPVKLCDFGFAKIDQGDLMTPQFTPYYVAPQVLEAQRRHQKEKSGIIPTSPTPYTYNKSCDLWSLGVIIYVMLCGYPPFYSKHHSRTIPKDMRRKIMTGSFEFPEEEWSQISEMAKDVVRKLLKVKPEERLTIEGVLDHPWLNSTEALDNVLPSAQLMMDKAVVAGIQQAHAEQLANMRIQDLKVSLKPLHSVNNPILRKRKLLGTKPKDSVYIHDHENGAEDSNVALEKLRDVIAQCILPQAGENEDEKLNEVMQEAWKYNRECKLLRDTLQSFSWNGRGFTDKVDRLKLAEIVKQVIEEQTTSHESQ
Assay: MAPKAP-K5 FlashPlate kinase assay (33P-ATP)
Type: biochemical
Details: 0.6 μM ATP, 30 minutes at room temperature
Method: 3 μM MAPKAP-K5 peptide substrate

Compound	IC50
NC(=O)c1cc(-c2cnc(NC3CCN(Cc4ccccc4)C3)c3ncnn23)co1 (stereo not drawn) [Example 4, 4-[8-(1-Benzyl-pyrrolidin-3-ylamino)-[1,2,4]triazolo[1,5-a]pyrazin-5-yl]-furan-2-carboxylic acid amide]	0.501 to 1 µM
NC(=O)c1cc(-c2cnc(NC3CCC3)c3nccn23)co1 [Example 6, 4-(8-(CYCLOBUTYLAMINO)IMIDAZO[1,2-A]PYRAZIN-5-YL)FURAN-2-CARBOXAMIDE]	0.101 to 0.5 µM
O=C1NCc2cc(-c3cnc(NC4CC4)c4ncnn34)ccc21 [Example 14, 5-(8-(CYCLOPROPYLAMINO)-[1,2,4]TRIAZOLO[1,5-A]PYRAZIN-5-YL)ISOINDOLIN-1-ONE]	0.101 to 0.5 µM
O=C1NCc2cc(-c3cnc(NC4CCC(O)CC4)c4ncnn34)ccc21 (stereo not drawn) [Example 15, 5-(8-(4-HYDROXYCYCLOHEXYLAMINO)-[1,2,4]TRIAZOLO[1,5-A]PYRAZIN-5-YL)ISOINDOLIN-1-ONE]	0.101 to 0.5 µM
NC(=O)c1cc(-c2cnc(NC3CCN(Cc4ccccc4)CC3)c3ncnn23)co1 [Example 18, 4-[8-(1-BENZYL-PIPERIDIN-4-YLAMINO)-[1,2,4]TRIAZOLO[1,5-A]PYRAZIN-5-YL]-FURAN-2-CARBOXYLIC ACID AMIDE]	> 1 µM

Now from value to compound:

IC50	Compound
> 1 µM	NC(=O)c1cc(-c2cnc(NC3CCN(Cc4ccccc4)C3)c3nccn23)co1 (single isomer, unassigned) [Example 17, 4-[8-(1-BENZYL-PYRROLIDIN-3-YLAMINO)-IMIDAZO[1,2-A]PYRAZIN-5-YL]-FURAN-2-CARBOXYLIC ACID AMIDE]
0.101 to 0.5 µM	O=C1NCc2cc(-c3cnc(NC4CCCCC4)c4nccn34)ccc21 [Example 1, 5-(8-(cyclohexylamino)imidazo[1,2-a]pyrazin-5-yl)isoindolin-1-one]
0.101 to 0.5 µM	NC(=O)c1cc(-c2cnc(NC3CCC3)c3ncnn23)co1 [Example 2, 4-(8-(cyclobutylamino)-[1,2,4]triazolo[1,5-a]pyrazin-5-yl)furan-2-carboxamide]
0.101 to 0.5 µM	O=C1NCc2cc(-c3cnc(NC4CCC4)c4nccn34)ccc21 [Example 5, 5-(8-(CYCLOBUTYLAMINO)IMIDAZO[1,2-A]PYRAZIN-5-YL)ISOINDOLIN-1-ONE]
0.501 to 1 µM	NC(=O)c1cc(-c2cnc(NC3CCCC3)c3nccn23)co1 [Example 7, 4-(8-(CYCLOPENTYLAMINO)IMIDAZO[1,2-A]PYRAZIN-5-YL)FURAN-2-CARBOXAMIDE]
0.501 to 1 µM	CC(C)(C)OC(=O)N1CCC(Nc2ncc(-c3ccc4c(c3)CNC4=O)n3ncnc23)CC1 [Example 12, TERT-BUTYL 4-(5-(1-OXOISOINDOLIN-5-YL)-[1,2,4]TRIAZOLO[1,5-A]PYRAZIN-8-YLAMINO)PIPERIDINE-1-CARBOXYLATE]
0.501 to 1 µM	CC(C)(C)OC(=O)NC1CCC(Nc2ncc(-c3ccc4c(c3)CNC4=O)n3ncnc23)CC1 (stereo not drawn) [Example 16, TERT-BUTYL 4-(5-(1-OXOISOINDOLIN-5-YL)-[1,2,4]TRIAZOLO[1,5-A]PYRAZIN-8-YLAMINO)CYCLOHEXYLCARBAMATE]
